# Data: patent publication US20250066389A1, “HETEROCYCLIC AMIDES AND METHODS OF USING THE SAME” (Rgenta Therapeutics, Inc., priority 2021, published 2025)
# Structures can show the parent of a compound that is named as a salt.
# Test system: PMS1
# Experiment: Mini-Gene Reporter Assay—PMS1 (firefly luciferase mini-gene reporter transiently transfected into HEK293 cells)
# Format: cell-based
# Conditions: Homo sapiens; mini-gene firefly luciferase reporter in HEK293 cells
# How it was run: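 HEK293 cells transiently transfected with a mini-gene construct (skipped exon with flanking introns/exons fused to firefly luciferase, pcDNA3.1) are incubated with compounds in duplicate. Exon inclusion raises luminescence; EC50 fitted by Levenberg-Marquardt; effect also scored at 5 μM.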
row,Compound,IC50
1,"Cc1cn2cc(C(=O)Nc3ccc(N4CCN[C@@H](C)C4)nn3)c(OCC(F)(F)F)cc2n1 [Compound 216, (S)-2-methyl-N-(6-(3-methylpiperazin-1-yl)pyridazin-3-yl)-7-(2,2,2-trifluoroethoxy)imidazo[1,2-a]pyridine-6-carboxamide]",< 1 µM
2,"CCOc1cc2nc(C)cn2cc1C(=O)Nc1ccc(N2CCN[C@@H](C)C2)nn1 [Compound 217, (S)-7-ethoxy-2-methyl-N-(6-(3-methylpiperazin-1-yl)pyridazin-3-yl)imidazo[1,2-a]pyridine-6-carboxamide HCl Salt]",< 1 µM
3,"Cc1cn2cc(C(=O)Nc3ccc(N4CCN[C@@H](C)C4)nn3)c(OC3CCCOC3)cc2n1 (stereo partly drawn) [Compound 218, 2-methyl-N-(6-((S)-3-methylpiperazin-1-yl)pyridazin-3-yl)-7-((tetrahydro-2H-pyran-3-yl)oxy)imidazo[1,2-a]pyridine-6-carboxamide]",1 to 10 µM
4,"Cc1cn2cc(C(=O)Nc3ccc(N4CCNC(C)(C)C4)nn3)c(OC3CCC3)cc2n1 [Compound 219, 7-cyclobutoxy-N-(6-(3,3-dimethylpiperazin-1-yl)pyridazin-3-yl)-2-methylimidazo[1,2-a]pyridine-6-carboxamide]",< 1 µM
5,"CCOc1cc2nn(C)cc2cc1C(=O)Nc1ccc(N2CCNC(C)(C)C2)nn1 [Compound 220, N-(6-(3,3-dimethylpiperazin-1-yl)pyridazin-3-yl)-6-ethoxy-2-methyl-2H-indazole-5-carboxamide hydrochloride]",< 1 µM
6,"CCOc1cc2nc(C)cn2cc1C(=O)Nc1ccc(N2CCNC(C)(C)C2)nn1 [Compound 221, N-(6-(3,3-dimethylpiperazin-1-yl)pyridazin-3-yl)-7-ethoxy-2-methylimidazo[1,2-a]pyridine-6-carboxamide hydrochloride]",< 1 µM
7,"CCOc1cc2nn(C)cc2cc1C(=O)Nc1cc(C)c(N2CCN[C@@H](C)C2)nn1 [Compound 222, (S)-6-ethoxy-2-methyl-N-(5-methyl-6-(3-methylpiperazin-1-yl)pyridazin-3-yl)-2H-indazole-5-carboxamide hydrochloride]",1 to 10 µM
8,"CCOc1nc2nc(C)cn2cc1C(=O)Nc1ccc(N2CCN[C@@H](C)C2)nn1 [Compound 224, (S)-7-ethoxy-2-methyl-N-(6-(3-methylpiperazin-1-yl)pyridazin-3-yl)imidazo[1,2-a]pyrimidine-6-carboxamide hydrochloride]",< 1 µM
9,"CCOc1nc2nn(C)cc2cc1C(=O)Nc1ccc(N2CCN[C@@H](C)C2)nn1 [Compound 225, (S)-6-ethoxy-2-methyl-N-(6-(3-methylpiperazin-1-yl)pyridazin-3-yl)-2H-pyrazolo[3,4-b]pyridine-5-carboxamide hydrochloride]",< 1 µM
10,CCOc1cc2nc(C)cn2cc1C(=O)Nc1ccc(N2CCC(NC)CC2)nn1 [Compound 226],1 to 10 µM
11,CCOc1cc2nc(C)cn2cc1C(=O)Nc1ccc(N2CC(C3CCNC3)C2)nn1 (stereo not drawn) [Compound 227],1 to 10 µM
12,CCOc1cc2nc(C)cn2cc1C(=O)Nc1ccc(N2CCNC(CC(F)F)C2)nn1 (stereo not drawn) [Compound 228],< 1 µM
13,CCOc1cc2nc(C)cn2cc1C(=O)Nc1ccc(N2CC3=C(CNC3)C2)nn1 [Compound 229],< 1 µM
14,CCOc1cc2nc(C)cn2cc1C(=O)Nc1ccc(N2CCNCC3(CC3)C2)nn1 [Compound 230],1 to 10 µM
15,CCOc1cc2nc(C)cn2cc1C(=O)Nc1ccc(N2CCNC(CC(F)(F)F)C2)nn1 (stereo not drawn) [Compound 231],1 to 10 µM
16,CCOc1cc2nc(C)cn2cc1C(=O)Nc1ccc(N2CCC(CNC(C)C)CC2)nn1 [Compound 232],1 to 10 µM
17,CCOc1cc2nc(C)cn2cc1C(=O)Nc1ccc(N2CCC(C3CCCN3)C2)nn1 (stereo not drawn) [Compound 233],1 to 10 µM
18,CCOc1cc2nc(C)cn2cc1C(=O)Nc1ccc(N2CC3C4CCC(NC4)C3C2)nn1 (stereo not drawn) [Compound 235],1 to 10 µM
19,CCOc1cc2nc(C)cn2cc1C(=O)Nc1ccc(N2CCC3CCCC(C2)N3)nn1 (stereo not drawn) [Compound 236],1 to 10 µM
20,CCOc1cc2nc(C)cn2cc1C(=O)Nc1ccc(N2CC3CCC2C2CNCC32)nn1 (stereo not drawn) [Compound 237],1 to 10 µM
21,CCOc1cc2nc(C)cn2cc1C(=O)Nc1ccc(N2C3CCCC2CNC3)nn1 [Compound 238],1 to 10 µM
22,CCOc1cc2nc(C)cn2cc1C(=O)Nc1ccc(N2CCC3CCNCC3C2)nn1 (stereo not drawn) [Compound 240],1 to 10 µM
23,CCOc1cc2nc(C)cn2cc1C(=O)Nc1ccc(N2CC34CCCC3(CNC4)C2)nn1 (stereo not drawn) [Compound 242],1 to 10 µM

row,Compound,IC50
1,CCOc1cc2nc(C)cn2cc1C(=O)Nc1ccc(N2CCNC3CCCCC32)nn1 (stereo not drawn) [Compound 243],1 to 10 µM
2,CCNC1CCN(c2ccc(NC(=O)c3cn4cc(C)nc4cc3OCC)nn2)C1 (stereo not drawn) [Compound 244],< 1 µM
3,CCOc1cc2nc(C)cn2cc1C(=O)Nc1ccc(N2CCC(NCCOC)CC2)nn1 [Compound 245],1 to 10 µM
4,CCOc1cc2nc(C)cn2cc1C(=O)Nc1ccc(N2C3CCC2CC(NC)C3)nn1 (stereo not drawn) [Compound 247],1 to 10 µM
5,CCOc1cc2nc(C)cn2cc1C(=O)Nc1ccc(N2CC3CCCC(C2)NC3)nn1 (stereo not drawn) [Compound 248],1 to 10 µM
6,CCOc1cc2nc(C)cn2cc1C(=O)Nc1ccc(N2CCC(NCC3CC3)CC2)nn1 [Compound 249],1 to 10 µM
7,CCOc1cc2nc(C)cn2cc1C(=O)Nc1ccc(N(C)C2CCCNCC2)nn1 (stereo not drawn) [Compound 250],1 to 10 µM
8,CCNC1CCCN(c2ccc(NC(=O)c3cn4cc(C)nc4cc3OCC)nn2)C1 (stereo not drawn) [Compound 251],1 to 10 µM
9,CCOc1cc2nc(C)cn2cc1C(=O)Nc1ccc(N2CCCC3(CCNC3)C2)nn1 (stereo not drawn) [Compound 254],10 to 50 µM
10,CCOc1cc2nc(C)cn2cc1C(=O)Nc1ccc(N2CC3CCCC(C2)N3)nn1 [Compound 255],< 1 µM
11,CCOc1cc2nc(C)cn2cc1C(=O)Nc1ccc(N(C)[C@@H]2C[C@H]3CC[C@@H](C2)N3)nn1 [Compound 256],1 to 10 µM
12,CCOc1cc2nc(C)cn2cc1C(=O)Nc1ccc(N2CCNC(C)CC2)nn1 (stereo not drawn) [Compound 257],1 to 10 µM
13,CCOc1cc2nc(C)cn2cc1C(=O)Nc1ccc(N2CCNC3CC32)nn1 (stereo not drawn) [Compound 258],1 to 10 µM
14,CCOc1cc2nc(C)cn2cc1C(=O)Nc1ccc(N2CCN(CC3CCNCC3)CC2)nn1 [Compound 259],1 to 10 µM
15,CCOc1cc2nc(C)cn2cc1C(=O)Nc1ccc(N2C[C@@H]3CCCN[C@@H]3C2)nn1 [Compound 260],1 to 10 µM
16,CCNC1CN(c2ccc(NC(=O)c3cn4cc(C)nc4cc3OCC)nn2)C1 [Compound 262],1 to 10 µM
17,CCOc1cc2nc(C)cn2cc1C(=O)Nc1ccc(N2CCC(C3CCCN3)CC2)nn1 (stereo not drawn) [Compound 263],1 to 10 µM
18,CCOc1cc2nc(C)cn2cc1C(=O)Nc1ccc(N2CCNCCC2C)nn1 (stereo not drawn) [Compound 264],1 to 10 µM
19,CCOc1cc2nc(C)cn2cc1C(=O)Nc1ccc(N2CCC3(CCCNC3)C2)nn1 (stereo not drawn) [Compound 265],1 to 10 µM
20,CCOc1cc2nc(C)cn2cc1C(=O)Nc1ccc(N2CCC(CNC)C2)nn1 (stereo not drawn) [Compound 266],< 1 µM
21,CCOc1cc2nc(C)cn2cc1C(=O)Nc1ccc(N2CC3(CCNC3)C2)nn1 [Compound 267],1 to 10 µM
22,CCOc1cc2nc(C)cn2cc1C(=O)Nc1ccc(N2CCNC(C)C2C)nn1 (stereo not drawn) [Compound 268],1 to 10 µM
23,CCNC1CCN(c2ccc(NC(=O)c3cn4cc(C)nc4cc3OCC)nn2)CC1 [Compound 269],1 to 10 µM

row,Compound,IC50
1,CCOc1cc2nc(C)cn2cc1C(=O)Nc1ccc(N2CCC(CNC)CC2)nn1 [Compound 270],1 to 10 µM
2,CCOc1cc2nc(C)cn2cc1C(=O)Nc1ccc(N2CCC3(CNC3)C2)nn1 [Compound 271],1 to 10 µM
3,CCOc1cc2nc(C)cn2cc1C(=O)Nc1ccc(N2CCN(C3CNC3)CC2)nn1 [Compound 272],1 to 10 µM
4,CCOc1cc2nc(C)cn2cc1C(=O)Nc1ccc(N2CCC3(CCNCC3)C2)nn1 [Compound 273],1 to 10 µM
5,CCOc1cc2nc(C)cn2cc1C(=O)Nc1ccc(N2CCN(C3CCNC3)CC2)nn1 (stereo not drawn) [Compound 274],1 to 10 µM
6,CCOc1cc2nc(C)cn2cc1C(=O)Nc1ccc(N2CCC3(CCNC3)CC2)nn1 [Compound 275],1 to 10 µM
7,CCOc1cc2nc(C)cn2cc1C(=O)Nc1ccc(N2CCN[C@@H](C(C)C)C2)nn1 [Compound 276],< 1 µM
8,CCOc1cc2nc(C)cn2cc1C(=O)Nc1ccc(N2CC3(CNC3)C2)nn1 [Compound 277],1 to 10 µM
9,CCOc1cc2nc(C)cn2cc1C(=O)Nc1ccc(N2CCCC(CNC)C2)nn1 (stereo not drawn) [Compound 278],1 to 10 µM
10,CCOc1cc2nc(C)cn2cc1C(=O)Nc1ccc(N2CCNC(CC)C2)nn1 (stereo not drawn) [Compound 279],< 1 µM
11,CCOc1cc2nc(C)cn2cc1C(=O)Nc1ccc(N2CCC(NC)C2)nn1 (stereo not drawn) [Compound 280],< 1 µM
12,CCOc1cc2nc(C)cn2cc1C(=O)Nc1ccc(N2CC(C)NCC2C)nn1 (stereo not drawn) [Compound 281],1 to 10 µM
13,CCOc1cc2nc(C)cn2cc1C(=O)Nc1ccc(N2C[C@@H](C)N[C@@H](C)C2)nn1 [Compound 282],< 1 µM
14,CCOc1cc2nc(C)cn2cc1C(=O)Nc1ccc(N2CCCC(NC)C2)nn1 (stereo not drawn) [Compound 283],1 to 10 µM
15,CCOc1cc2nc(C)cn2cc1C(=O)Nc1ccc(N2CCC3(CCNCC3)CC2)nn1 [Compound 284],1 to 10 µM
16,CCOc1cc2nc(C)cn2cc1C(=O)Nc1ccc(N2C[C@@H]3C[C@H]2CN3)nn1 [Compound 285],1 to 10 µM
17,CCOc1cc2nc(C)cn2cc1C(=O)Nc1ccc(N2CCC3(CCNC3)C2)nn1 (stereo not drawn) [Compound 286],1 to 10 µM
18,CCOc1cc2nc(C)cn2cc1C(=O)Nc1ccc(N2CCC3(CC2)CNC3)nn1 [Compound 287],1 to 10 µM
19,CCOc1cc2nc(C)cn2cc1C(=O)Nc1ccc(N(C)C2CCNC2)nn1 (stereo not drawn) [Compound 288],1 to 10 µM
20,CCOc1cc2nc(C)cn2cc1C(=O)Nc1ccc(N2CC3(CCNCC3)C2)nn1 [Compound 289],1 to 10 µM
21,CCOc1cc2nc(C)cn2cc1C(=O)Nc1ccc(N2CCNCC2)nn1 [Compound 290],< 1 µM
22,CCOc1cc2nc(C)cn2cc1C(=O)Nc1ccc(N2CCNCC2C)nn1 (stereo not drawn) [Compound 291],1 to 10 µM
23,CCOc1cc2nc(C)cn2cc1C(=O)Nc1ccc(N(C)C2CCNCC2)nn1 [Compound 292],1 to 10 µM
